Measured values as given in the supplement of paper PMC7394473.

Tests used:
Settings in all cases: 72 h
U2OS [1] = test: drug GRADE (percent of response due to cell death) (% (0-100)); higher = more death-driven response
Description: (§1)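 U2OS cells treated with full dose titrations of drug; live and dead cells counted by STACK microscopy (mKate2 nuclei, SYTOX Green) at 72 h, biological triplicates. GR and FV dose responses were fitted with 4-parameter logistic models (GR lower bound -1). GRADE (0-100) is the rescaled angle of a linear fit of FV versus GR at doses with GR >= 0, giving the percentage of the response due to cell death.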

U2OS [2] = test: FV IC50 (concentration giving fractional viability 0.5); higher = less potent killing
Description: as §1

U2OS [3] = test: fractional viability (live cells / total cells); higher = less cell death
Description: (§2)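 U2OS::Nuc-mKate2 cells seeded in 96-well plates and treated with eight- to ten-point half-log or log dilutions of drug in the presence of 50 nM SYTOX Green. Live (mKate2+) and dead (SYTOX+) cells were counted by IncuCyte STACK live-cell microscopy at 72 h; biological triplicates. GR is the normalised growth-rate inhibition value (Hafner 2016; 1 = untreated growth, <0 = population shrinking). FV is live/(live+dead) cells, not normalised.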

U2OS [4] = test: GR50 (concentration giving GR = 0.5)
Description: as §1

U2OS [5] = test: normalized growth rate inhibition value (GR) relative to untreated cells (GR value (dimensionless, 1 = untreated growth)); higher = less growth inhibition
Description: as §2

U2OS [6] = test: GRmin (fitted minimal GR value at highest effect) (GR value (dimensionless)); higher = less efficacious
Description: as §1

Structure (SMILES)	drug GRADE (U2OS [1])	FV IC50 (U2OS [2]) [µM]	fractional viability (U2OS [3]; 0.01 µM)	fractional viability (U2OS [3]; 0.0316 µM)	fractional viability (U2OS [3]; 0.1 µM)	fractional viability (U2OS [3]; 0.316 µM)	fractional viability (U2OS [3]; 1 µM)	fractional viability (U2OS [3]; 3.16 µM)	fractional viability (U2OS [3]; 10 µM)	fractional viability (U2OS [3]; 31.6 µM)	GR50 (U2OS [4]) [µM]	normalized growth rate inhibition value (U2OS [5]; 0.01 µM)	normalized growth rate inhibition value (U2OS [5]; 0.0316 µM)	normalized growth rate inhibition value (U2OS [5]; 0.1 µM)	normalized growth rate inhibition value (U2OS [5]; 0.316 µM)	normalized growth rate inhibition value (U2OS [5]; 1 µM)	normalized growth rate inhibition value (U2OS [5]; 3.16 µM)	normalized growth rate inhibition value (U2OS [5]; 10 µM)	normalized growth rate inhibition value (U2OS [5]; 31.6 µM)	GRmin (U2OS [6])	further results
Cc1cn(-c2cc(NC(=O)c3ccc(C)c(Nc4nccc(-c5cccnc5)n4)c3)cc(C(F)(F)F)c2)cn1 [Nilotinib]	27.4	10.3	0.984	0.986	0.98	0.98	0.972	0.92	0.53	0.00617	3.89	1.07	1.11	0.977	0.928	0.955	0.585	-0.184	-0.875	–	–
Cc1cc2c(C(=O)NC[C@H](C)c3ccccc3)c(O)c(O)cc2c(O)c1-c1c(C)cc2c(C(=O)NC[C@H](C)c3ccccc3)c(O)c(O)cc2c1O [Sabutoclax]	27.4	–	0.979	0.983	0.982	0.975	0.982	0.936	0.878	0.681	3.32	0.995	0.971	1.12	0.844	0.77	0.533	0.175	-0.0541	-0.234	–
CC[C@@H](C(=O)[C@@H](C)[C@@H](O)[C@H](C)[C@@H]1O[C@@H]([C@@H](CC)C(=O)O)CC[C@@H]1C)[C@H]1O[C@]2(C=C[C@@H](O)[C@]3(CC[C@@](C)([C@H]4CC[C@](O)(CC)[C@H](C)O4)O3)O2)[C@H](C)C[C@@H]1C [Salinomycin]	59.9	17.5	0.982	0.975	0.977	0.955	0.899	0.725	0.722	0.322	2.41	1.07	0.992	0.814	0.77	0.63	0.405	0.316	-0.253	–	–
CN1CCN(CCOc2cc(OC3CCOCC3)c3c(Nc4c(Cl)ccc5c4OCO5)ncnc3c2)CC1 [Saracatinib]	28.7	–	–	–	–	–	–	–	0.833	–	2.59	–	–	–	–	–	–	0.205	–	-0.134	fractional viability (U2OS [3]; 0.00100578 µM): 0.989; fractional viability (U2OS [3]; 0.00317827 µM): 0.989; fractional viability (U2OS [3]; 0.0100433 µM): 0.987; fractional viability (U2OS [3]; 0.0317369 µM): 0.986; fractional viability (U2OS [3]; 0.100289 µM): 0.98; fractional viability (U2OS [3]; 0.316912 µM): 0.965; fractional viability (U2OS [3]; 1.00144 µM): 0.929; fractional viability (U2OS [3]; 3.16456 µM): 0.915; normalized growth rate inhibition value (U2OS [5]; 0.00100578 µM): 1.02; normalized growth rate inhibition value (U2OS [5]; 0.00317827 µM): 1.04; normalized growth rate inhibition value (U2OS [5]; 0.0100433 µM): 1; normalized growth rate inhibition value (U2OS [5]; 0.0317369 µM): 0.977; normalized growth rate inhibition value (U2OS [5]; 0.100289 µM): 0.978; normalized growth rate inhibition value (U2OS [5]; 0.316912 µM): 0.823; normalized growth rate inhibition value (U2OS [5]; 1.00144 µM): 0.608; normalized growth rate inhibition value (U2OS [5]; 3.16456 µM): 0.528
O=C1NC(=O)[C@@H](c2cn3c4c(cccc24)CCC3)[C@@H]1c1c[nH]c2ccccc12 [Tivantinib]	42.8	–	–	–	–	–	–	–	0.481	–	0.169	–	–	–	–	–	–	-0.3	–	-0.31	fractional viability (U2OS [3]; 0.00100578 µM): 0.99; fractional viability (U2OS [3]; 0.00317827 µM): 0.991; fractional viability (U2OS [3]; 0.0100433 µM): 0.986; fractional viability (U2OS [3]; 0.0317369 µM): 0.988; fractional viability (U2OS [3]; 0.100289 µM): 0.975; fractional viability (U2OS [3]; 0.316912 µM): 0.844; fractional viability (U2OS [3]; 1.00144 µM): 0.613; fractional viability (U2OS [3]; 3.16456 µM): 0.683; normalized growth rate inhibition value (U2OS [5]; 0.00100578 µM): 0.95; normalized growth rate inhibition value (U2OS [5]; 0.00317827 µM): 1.03; normalized growth rate inhibition value (U2OS [5]; 0.0100433 µM): 0.977; normalized growth rate inhibition value (U2OS [5]; 0.0317369 µM): 0.86; normalized growth rate inhibition value (U2OS [5]; 0.100289 µM): 0.598; normalized growth rate inhibition value (U2OS [5]; 0.316912 µM): 0.299; normalized growth rate inhibition value (U2OS [5]; 1.00144 µM): 0.049; normalized growth rate inhibition value (U2OS [5]; 3.16456 µM): -0.107
CCC(=O)N1CCN(c2ccc(-n3c(=O)ccc4cnc5ccc(-c6cnc7ccccc7c6)cc5c43)cc2C(F)(F)F)CC1 [Torin 1]	21.4	–	0.977	0.976	0.966	0.954	0.937	0.917	0.895	0.792	0.473	1.02	0.896	0.749	0.525	0.404	0.275	0.147	0.114	0.106	–
CC[C@]1(O)C[C@H]2CN(CCc3c([nH]c4ccccc34)[C@@](C(=O)OC)(c3cc4c(cc3OC)N(C=O)[C@H]3[C@@](O)(C(=O)OC)[C@H](OC(C)=O)[C@]5(CC)C=CCN6CC[C@]43[C@@H]65)C2)C1 [Vincristine]	67.6	0.0107	–	0.426	–	0.472	–	0.427	–	0.415	–	–	0.0808	–	0.0568	–	-0.0172	–	0.0544	0.000271	fractional viability (U2OS [3]; 0.00316 µM): 0.548; normalized growth rate inhibition value (U2OS [5]; 0.00316 µM): 0.251
CC[C@@H]1C(=O)N(C)c2cnc(Nc3ccc(C(=O)N[C@H]4CC[C@H](N5CCN(CC6CC6)CC5)CC4)cc3OC)nc2N1C(C)C [Volasertib]	17.9	–	–	–	–	–	0.548	–	–	–	0.0162	–	–	–	–	-0.259	–	–	–	-0.24	fractional viability (U2OS [3]; 0.000100578 µM): 0.988; fractional viability (U2OS [3]; 0.000317827 µM): 0.986; fractional viability (U2OS [3]; 0.00100433 µM): 0.987; fractional viability (U2OS [3]; 0.00317369 µM): 0.986; fractional viability (U2OS [3]; 0.0100289 µM): 0.964; fractional viability (U2OS [3]; 0.0316912 µM): 0.86; fractional viability (U2OS [3]; 0.100144 µM): 0.725; fractional viability (U2OS [3]; 0.316456 µM): 0.563; normalized growth rate inhibition value (U2OS [5]; 0.000100578 µM): 0.973; normalized growth rate inhibition value (U2OS [5]; 0.000317827 µM): 1.07; normalized growth rate inhibition value (U2OS [5]; 0.00100433 µM): 1.1; normalized growth rate inhibition value (U2OS [5]; 0.00317369 µM): 1; normalized growth rate inhibition value (U2OS [5]; 0.0100289 µM): 0.717; normalized growth rate inhibition value (U2OS [5]; 0.0316912 µM): 0.122; normalized growth rate inhibition value (U2OS [5]; 0.100144 µM): -0.136; normalized growth rate inhibition value (U2OS [5]; 0.316456 µM): -0.25
